Measured values: PMC4488747, “Inhibition of P-glycoprotein Gene Expression and Function Enhances Triptolide-induced Hepatotoxicity in Mice” (Scientific Reports, 2015)

Tests used:
CYP reductase KO mice = system: CYP reductase KO mice; parameters: method as in PMID 21596114; conditions: cited from earlier work
[1] = Triptolide plasma toxicokinetics in mice; type: in vivo; conditions: TP 1.0 mg/kg iv
Description: (§1) For TP plasma kinetic study and toxicological evaluation, mice were divided into four groups (n = 5 each) to collect blood and tissue samples: (1) normal + saline group; (2) 1.0 mg/kg TP + 15 nmol NC-siRNA group; (3) 1.0 mg/kg TP + 15 nmol mdr1a-siRNA group; (4) 1.0 mg/kg TP + 10 mg/kg tariquidar group. In order to avoid the complication caused by drug absorption or possible intestinal first-pass effect, TP and the inhibitor were intravenously administrated to mice. The siRNA group was intravenously injected with NC-siRNA or mdr1a-siRNA 2 days before TP dose. For TP + tariquidar group, the mice were received an intravenous tariquidar dose 20 min prior to the TP injection. Blood samples were collected at 2, 5, 10, 15, 30, 60 and 120 min after TP dosing. To assess the liver exposure of TP, liver tissue samples were collected from another set of mice at 5, 30, 60 and 120 min after dosing. Three TP groups were design for this experiment, including TP + NC-siRNA group, TP + mdr1a-siRNA group and TP + tariquidar group. The liver tissue samples were weighed and then homogenized in 10 volume (w:v) of ice-cold saline. The concentrations of TP in plasma and liver tissue were measured by a validated LC-MS/MS method. Prior to the above animal study, a preliminary experiment was performed to assess the possible differences in liver P-gp protein expression (Figure S1) and TP plasma kinetics between NC-siRNA treated mice and normal mice (with saline) (Figure S2 and supplemental Table 1). […] Therefore, NC-siRNA group was used as the control in the following animal study.
The TP in plasma and tissue samples was quantitatively analyzed by a published LC-MS/MS method. The method was slightly modified and validated for analysis of plasma and liver tissue samples. Plasma and tissue homogenate were pretreated with 3-fold volume of methanol-acetonitrile (1:1, v/v) containing 20 ng/ml propranolol to precipitate proteins, and then centrifuged at 4°C, 14,000 g for 10 min. The supernatant (10 μl) was injected into LC-MS/MS for analysis. An Aglient 6410B triple quadrupole mass spectrometer equipped with Agilent1290 Infinity UHPLC system (Agilent Technologies, Santa Clara, CA) was used. TP and propranolol (internal standard, IS) were eluted from an Agilent C18 column (dp = 3.5 μm, 2.1 × 50 mm, Agilent, MA) using a mobile phase gradient (A: water with 0.1% formic acid and 2.5 mM ammonium formate, B: acetonitrile with 0.1% formic acid). The gradient was run as: 0–2.5 min hold at 95% B; 2.5–3 min, a linear gradient to 10% B; 3–4 min hold at 10% B. Flow rate was 0.2 ml/min. TP and propranolol were detected in positive ion mode using single reaction monitoring: TP, m/z 378.1/360.1, IS, m/z 260.0/116.0. Under the above optimized condition, no significant endogenous interferences were detected at the peak regions for TP and IS in all the biological specimens. The calibration curves of TP were linear (r^2 > 0.99) over the concentration range of 1–1000 ng/ml. The lower limit of quantification was at 1 ng/ml. The intra and inter-day precisions (RSD) were all below 11% and the assay accuracies (RE) were in the range from 87% to 113%. The recovery was above 80% for both plasma and tissue samples.
Toxicokinetic parameters, including area under the plasma concentration-time curve (AUC), volume of distribution (Vd), clearance (CL), mean residence time (MRT) and terminal elimination half-life (t1/2), were calculated by non-compartmental analysis using WinNonlin 5.2 software (Pharsight Corporation, CA, USA). All the data were expressed as mean ± SD. Differences between groups were compared by Student’s t-test for analysis of unpaired data or one-way ANOVA. Statistical significance was accepted at P < 0.05.

BALB/C mice [2] = experiment: Death rate of mice after TP treatment; type: in vivo; conditions: TP 1 mg/kg iv, pretreatment with mdr1a-siRNA
Description: For TP plasma kinetic study and toxicological evaluation, mice were divided into four groups (n = 5 each) to collect blood and tissue samples: (1) normal + saline group; (2) 1.0 mg/kg TP + 15 nmol NC-siRNA group; (3) 1.0 mg/kg TP + 15 nmol mdr1a-siRNA group; (4) 1.0 mg/kg TP + 10 mg/kg tariquidar group. In order to avoid the complication caused by drug absorption or possible intestinal first-pass effect, TP and the inhibitor were intravenously administrated to mice. The siRNA group was intravenously injected with NC-siRNA or mdr1a-siRNA 2 days before TP dose. For TP + tariquidar group, the mice were received an intravenous tariquidar dose 20 min prior to the TP injection. Blood samples were collected at 2, 5, 10, 15, 30, 60 and 120 min after TP dosing. To assess the liver exposure of TP, liver tissue samples were collected from another set of mice at 5, 30, 60 and 120 min after dosing. Three TP groups were design for this experiment, including TP + NC-siRNA group, TP + mdr1a-siRNA group and TP + tariquidar group. The liver tissue samples were weighed and then homogenized in 10 volume (w:v) of ice-cold saline. The concentrations of TP in plasma and liver tissue were measured by a validated LC-MS/MS method. […]

[3] = Preliminary experiment: effect of NC-siRNA on pharmacokinetics of TP in mice; type: in vivo; conditions: mice, plasma; for AUC(0-t) / Cmax / MRT / Vd / clearance: 1 mg/kg
Description: Effect of NC-siRNA on pharmacokinetic of TP
Mice were divided into two groups to collect blood samples (n=5 each): (1) 1.0 mg/kg TP + saline group; (2) 1.0 mg/kg TP + 15 nmol NC-siRNA group. The siRNA group was intravenously injected with NC-siRNA 2 days before TP dose. Blood samples were collected at 2, 5, 10, 15, 30, 60 and 120 min after TP dosing. The concentrations of TP in plasma and liver were measured by a validated LC-MS/MS method.

P-glycoprotein (P-gp) = system: P-glycoprotein (P-gp); parameters: method as in PMID 24065861; conditions: ATPase assay with rat mdr1 membrane; cited from earlier work
BALB/C mice [4] = experiment: Serum ALT and AST (TP-induced hepatotoxicity) in mice; type: in vivo; conditions: TP 1 mg/kg iv + NC-siRNA, 24 h after TP
Description: as §1
At 24 h of TP treatment, blood and liver tissue samples were collected from the mice in plasma kinetic study. Serum ALT and AST levels were determined with a CL8000 automated biochemical analyzer (Shimadzu, Japan) after serum was separated by centrifugation at 900 g for 10 min. Liver tissue samples were divided into two parts, the first half was kept at −80 °C until MDA and SOD measurements using MDA and SOD assay kits (Nanjing Jiancheng Bioengineering Institute, Nanjing, China) according to the manufacturer’s instructions. The other half was fixed with 4% paraformaldehyde solution and then dehydrated, embedded in paraffin and sectioned at a thickness of 5 μm. Four paraffin sections from each mouse were dewaxed, rehydrated and stained with hematoxylin-eosin (HE) for overall morphological evaluation. The total protein concentration was quantified by the BCA assay. Bcl-2 and Bax proteins were measured by western blot.

[5] = C57, mouse, iv, 1 mg/kg, 15 nmol NC-siRNA iv 2 days before (control)
[6] = C57, mouse, iv, 1 mg/kg, 15 nmol mdr1a-siRNA iv 2 days before
[7] = C57, mouse, iv, 1 mg/kg, with tariquidar 10 mg/kg iv, 20 min before TP, tariquidar 10 mg/kg iv 20 min prior
[8] = 15 nmol NC-siRNA iv 2 days before (control)
[9] = 15 nmol mdr1a-siRNA iv 2 days before
[10] = C57, mouse, iv, TP 1.0 mg/kg + saline
[11] = C57, mouse, iv, TP 1.0 mg/kg + 15 nmol NC-siRNA iv 2 days before

**Q.** With CC(C)[C@]12O[C@H]1[C@@H]1O[C@]13[C@]1(O[C@H]1C[C@H]1C4=C(CC[C@@]13C)C(=O)OC4)[C@@H]2O [TP, Triptolide] as the compound, how does the “Increase fold of TP hepatic exposure” value (CYP reductase KO mice; at 120 min) read?
**A.** The value was “about 2 fold”.

**Q.** And the “Increase in AST level” value (CYP reductase KO mice)?
**A.** The value was “about 2 fold”.

**Q.** And the MRT ([1]; C57, mouse, 15 nmol NC-siRNA iv 2 days before (control))?
**A.** The MRT was 20.4 ± 7.8 min.

**Q.** What about the AUC(0-t) [1, 5] of the same compound?
**A.** The AUC(0-t) was 104 ± 9.6 ng·h/mL.

**Q.** What about the Vd [1, 5] of the same compound?
**A.** Its Vd is 4.8 ± 1.1 L/kg.

**Q.** And the half-life [1, 5]?
**A.** The half-life was 20.4 ± 8.4 min.

**Q.** What about the Cmax ([1]; C57, mouse, iv, 1 mg/kg, 15 nmol NC-siRNA iv 2 days before (control), read-out: Cmax) of the same compound?
**A.** Its Cmax is 413 ± 74 ng/mL.

**Q.** What about the AUC(0-t) [1, 6] of the same compound?
**A.** Its AUC(0-t) is 154 ± 30.2 ng·h/mL.

**Q.** And the Vd [1, 6]?
**A.** The Vd was 3.3 ± 0.7 L/kg.

**Q.** And the half-life [1, 6]?
**A.** Its half-life is 29.4 ± 13.8 min.

**Q.** And the Cmax ([1]; C57, mouse, iv, 1 mg/kg, 15 nmol mdr1a-siRNA iv 2 days before, read-out: Cmax)?
**A.** Its Cmax is 510 ± 94 ng/mL.

**Q.** And the AUC(0-t) [1, 7]?
**A.** The AUC(0-t) was 146 ± 24.6 ng·h/mL.

**Q.** What about the Vd [1, 7] of the same compound?
**A.** The Vd was 3.9 ± 1.3 L/kg.

**Q.** And the half-life [1, 7]?
**A.** The half-life was 29.4 ± 13.2 min.

**Q.** What about the Cmax ([1]; C57, mouse, iv, 1 mg/kg, with tariquidar 10 mg/kg iv, 20 min before TP, tariquidar 10 mg/kg iv 20 min prior, read-out: Cmax) of the same compound?
**A.** The Cmax was 472 ± 66.5 ng/mL.

**Q.** What about the CL [1, 8] of the same compound?
**A.** The CL was 9564.0 ± 1024.2 mL/min/kg.

**Q.** And the Cmax [1, 8]?
**A.** Its Cmax is 413.1 ± 74.2 ng/mL.

**Q.** What about the CL [1, 9] of the same compound?
**A.** Its CL is 5755.4 ± 1200.1 mL/min/kg.

**Q.** What about the Cmax [1, 9] of the same compound?
**A.** The Cmax was 509.7 ± 94.1 ng/mL.

**Q.** And the MRT ([1]; mouse, 15 nmol mdr1a-siRNA iv 2 days before)?
**A.** Its MRT is 30.6 ± 13.8 min.

**Q.** And the MRT ([1]; mouse, with tariquidar 10 mg/kg iv, 20 min before TP, tariquidar 10 mg/kg iv 20 min prior)?
**A.** The MRT was 30 ± 13.2 min.

**Q.** And the “Death rate within 30 h of TP treatment” value (BALB/C mice [2])?
**A.** The value was “about 60%”.

**Q.** And the half-life [3, 10]?
**A.** Its half-life is 12.6 ± 3 min.

**Q.** What about the AUC(0-t) [3, 11] of the same compound?
**A.** The AUC(0-t) was 99.1 ± 11.7 ng·h/mL.

**Q.** And the Cmax [3, 11]?
**A.** The Cmax was 330 ± 18.2 ng/mL.

**Q.** And the MRT [3, 11]?
**A.** The MRT was 15.6 ± 2.4 min.

**Q.** What about the Vd [3, 11] of the same compound?
**A.** The Vd was 3.1 ± 0.6 L/kg.

**Q.** What about the clearance [3, 11] of the same compound?
**A.** Its clearance is 173 mL/min/kg.

**Q.** And the AUC(0-t) [3, 10]?
**A.** The AUC(0-t) was 104 ± 13.4 ng·h/mL.

**Q.** And the Cmax [3, 10]?
**A.** The Cmax was 351 ± 10.9 ng/mL.

**Q.** What about the MRT [3, 10] of the same compound?
**A.** Its MRT is 13.8 ± 1.8 min.

**Q.** What about the Vd [3, 10] of the same compound?
**A.** The Vd was 3 ± 0.3 L/kg.

**Q.** What about the clearance [3, 10] of the same compound?
**A.** Its clearance is 165 mL/min/kg.

**Q.** And the t1/2 ([3]; TP 1.0 mg/kg + 15 nmol NC-siRNA iv 2 days before)?
**A.** The t1/2 was 12.6 ± 3.6 min.

**Q.** What about the P-gp substrate identification (P-glycoprotein (P-gp)) of the same compound?
**A.** The P-gp substrate identification was “substrate”.

**Q.** What about the “Serum ALT level, folds of the normal group” value (BALB/C mice [4]) of the same compound?
**A.** The value was 4.2 folds.

**Q.** And the “Serum AST level, folds of the normal group” value (BALB/C mice [4])?
**A.** Its value is 5.4 folds.
